The target of assay [1] is HEK-293 cells transfected with dox-inducible human wild type FGFR2 (Homo sapiens (Human), UniProt P21802). The assay is described as follows: FGFR2 pFGFR cell assay (ELISA). It is filed as cell-based. The settings on record: HEK-293 dox-inducible FGFR2, 1 hour compound, 30 ng/ml FGF-acidic. As to the method:
FGFR2 pFGFR Cell Assay: • HEK-293 cells transfected with dox-inducible human wild type FGFR2 (SEQ ID NO: 3) were plated in a collagen or poly-D-lysine coated 96 well flat bottom plates at 4×10^5 cells/well in complete DMEM medium containing 10% FBS and 1 μg/ml doxycycline and allowed to attach for 24 h at 37° C., 5% CO2. Cells were treated with compound using 1:3 serial dilutions with a maximum final concentration of 5 μM. Compound was incubated on cells for 1 hour at 37° C., 5% CO2. Cells were then stimulated with a final concentration of 30 ng/ml human FGF-acidic (R&D Systems Cat number 232-FA/CF) for 5 minutes at 37° C., 5% CO2. Medium was removed and cells were lysed with lysis buffer containing phosphatase and protease inhibitors. Phospho FGFR2 was measured by ELISA (R&D Systems cat. no. DYC684). The ELISA captures total FGFR2 and detects total phospho tyrosine. Optical density was measured for each well using a Versamax reader at a wavelength of 450 nm. 100 POC was determined using no test compounds and 0 POC was determined using a control compound. The POC values were fit to a 4-parameter logistic curve as a function of the concentration of the compound, and the IC50 value is the point where the curve crosses 50 POC.
A general note: ELISA stands for enzyme-linked immunosorbent assay.

The target of the next assay is dephosphorylated FGFR2 (Homo sapiens (Human), UniProt P21802). The assay is described as follows: FGFR enzyme binding assay (HTRF tracer displacement), FGFR2. To be noted: 5 nM dephosphorylated FGFR2, average of multiple determinations if made. As to the method:
The potency of compounds inhibiting human isoforms of FGFR kinase was determined using Life Technologies' Homogeneous Time Resolved Fluorescence (HTRF)-based binding assay technology. […] After a 60 minute incubation at 22° C., the extent of tracer displacement was determined using a PerkinElmer EnVision multimode plate reader via HTRF dual wavelength detection, and the percent of control (POC) was calculated using a ratiometric emission factor. One hundred POC was determined using no test compound, and 0 POC was determined in the presence of 1 μM of an appropriate control inhibitor.
On the technique in general: Time-resolved FRET reads energy transfer from a long-lived donor to a nearby acceptor.

Sequence of dephosphorylated FGFR2 (P21802 22-821): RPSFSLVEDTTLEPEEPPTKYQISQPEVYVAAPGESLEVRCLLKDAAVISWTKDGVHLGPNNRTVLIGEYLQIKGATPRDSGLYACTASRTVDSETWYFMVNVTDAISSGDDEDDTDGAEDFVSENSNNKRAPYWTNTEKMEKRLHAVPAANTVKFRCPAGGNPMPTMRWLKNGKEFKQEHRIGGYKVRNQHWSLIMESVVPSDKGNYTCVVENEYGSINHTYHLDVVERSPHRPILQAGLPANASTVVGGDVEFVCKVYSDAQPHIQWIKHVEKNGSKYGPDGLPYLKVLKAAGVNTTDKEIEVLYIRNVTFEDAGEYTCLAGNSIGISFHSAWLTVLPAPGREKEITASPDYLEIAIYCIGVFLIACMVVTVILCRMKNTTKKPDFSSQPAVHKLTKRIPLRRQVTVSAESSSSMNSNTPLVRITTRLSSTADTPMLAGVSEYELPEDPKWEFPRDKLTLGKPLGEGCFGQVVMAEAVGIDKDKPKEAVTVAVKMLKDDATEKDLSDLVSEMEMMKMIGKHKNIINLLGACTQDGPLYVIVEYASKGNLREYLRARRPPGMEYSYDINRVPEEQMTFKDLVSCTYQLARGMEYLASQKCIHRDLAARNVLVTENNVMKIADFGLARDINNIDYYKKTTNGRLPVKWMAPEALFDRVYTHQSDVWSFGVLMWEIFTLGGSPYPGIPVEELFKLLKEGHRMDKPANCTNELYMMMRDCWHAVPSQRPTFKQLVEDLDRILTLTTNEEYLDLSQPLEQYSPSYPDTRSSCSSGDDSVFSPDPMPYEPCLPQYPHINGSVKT
Sequence of HEK-293 cells transfected with dox-inducible human wild type FGFR2 (P21802 22-821): as above

A word on the IC50: it is the point on the concentration scale where inhibition reaches its midpoint. The compound `C=CC(=O)Nc1ccc(CN2CCC(n3cc(-c4cc(OC)c5c(C#N)cnn5c4)cn3)CC2)cc1` [Example 9, N-(4-((4-(4-(3-cyano-4-methoxypyrazolo[1,5-a]pyridin-6-yl)-1H-pyrazol-1-yl)piperidin-1-yl)methyl)phenyl)acrylamide] registered an IC50 in assay [1] of 37 nM.
On the same count and under the same terms, with `C=CC(=O)N(C)c1ccc(CN2CCC(n3cc(-c4cc(OC)c5c(C#N)cnn5c4)cn3)CC2)cc1` [Example 10, N-(4-((4-(4-(3-cyano-4-methoxypyrazolo[1,5-a]pyridin-6-yl)-1H-pyrazol-1-yl)piperidin-1-yl)methyl)phenyl)-N-methylacrylamide] the figure was 36 nM; with `C=CC(=O)N1CCC(n2cc(-c3cc(OC)c4c(C#N)cnn4c3)cn2)CC1` [Example 11, 6-(1-(1-acryloylpiperidin-4-yl)-1H-pyrazol-4-yl)-4-methoxypyrazolo[1,5-a]pyridine-3-carbonitrile], 14 nM.
As to `C=CC(=O)N1CC(C(=O)N2CCC3(CC2)CN(c2ccc(-c4cc(OC)c5c(C#N)cnn5c4)cn2)C3)C1` [Example 102, 6-(6-(7-(1-acryloylazetidine-3-carbonyl)-2,7-diazaspiro[3.5]nonan-2-yl)pyridin-3-yl)-4-methoxypyrazolo[1,5-a]pyridine-3-carbonitrile], the IC50 at dephosphorylated FGFR2 came out at 22 nM; in assay [1] it was 129 nM.
`C=CC(=O)N1CC(C(=O)N2C[C@@H]3C[C@H]2CN3c2ccc(-c3cc(OC)c4c(C#N)cnn4c3)cn2)C1` [Example 106, 6-(6-((1S,4S)-5-(1-acryloylazetidine-3-carbonyl)-2,5-diazabicyclo[2.2.1]heptan-2-yl)pyridin-3-yl)-4-methoxypyrazolo[1,5-a]pyridine-3-carbonitrile]: the values for the half-inhibitory concentration (IC50) (on dephosphorylated FGFR2; in assay [1]) were 30 nM and 1200 nM, respectively.
Taken in the same sequence, the figures for `C=CC(=O)N1CC(CN2C[C@H]3C[C@@H]2CN3c2ccc(-c3cc(OC)c4c(C#N)cnn4c3)cn2)C1` [Example 108, 6-(6-((1R,4R)-5-((1-acryloylazetidin-3-yl)methyl)-2,5-diazabicyclo[2.2.1]heptan-2-yl)pyridin-3-yl)-4-methoxypyrazolo[1,5-a]pyridine-3-carbonitrile] were 28 nM and 236 nM.
For the compound `C=CC(=O)N1CC(C(=O)N2CCN(c3ccc(-c4cc(OC)c5c(C#N)cnn5c4)cn3)CC2)C1` [Example 111, 6-(6-(4-(1-acryloylazetidine-3-carbonyl)piperazin-1-yl)pyridin-3-yl)-4-methoxypyrazolo[1,5-a]pyridine-3-carbonitrile], the IC50 in assay [1] was found to be 348 nM.
Take `C=CC(=O)N1CC(OC)(C(=O)N2CCC(n3ncc(-c4cc(OC)c5c(Cl)cnn5c4)c3C)CC2)C1` [Example 117, 1-(3-(4-(4-(3-chloro-4-methoxypyrazolo[1,5-a]pyridin-6-yl)-5-methyl-1H-pyrazol-1-yl)piperidine-1-carbonyl)-3-methoxyazetidin-1-yl)prop-2-en-1-one]: the IC50 came out at 103 nM at dephosphorylated FGFR2 and 283 nM in assay [1].
In the case of `C=CC(=O)N1CC(CN2CCC(n3ncc(-c4cc(OC)c5c(Cl)cnn5c4)c3C)CC2)C1` [Example 118, 1-(3-((4-(4-(3-chloro-4-methoxypyrazolo[1,5-a]pyridin-6-yl)-5-methyl-1H-pyrazol-1-yl)piperidin-1-yl)methyl)azetidin-1-yl)prop-2-en-1-one], the 50% inhibitory concentration (IC50) at dephosphorylated FGFR2 worked out at 56 nM; in assay [1], 267 nM.
In the case of `C=CC(=O)N1CC(CN2CCC(n3ncc(-c4cc(OC)c5c(Cl)cnn5c4)c3C)CC2)(OC)C1` [Example 119, 1-(3-((4-(4-(3-chloro-4-methoxypyrazolo[1,5-a]pyridin-6-yl)-5-methyl-1H-pyrazol-1-yl)piperidin-1-yl)methyl)-3-methoxyazetidin-1-yl)prop-2-en-1-one], the IC50 came to 60 nM at dephosphorylated FGFR2 and 322 nM in assay [1].
Taken in the same sequence, the figures for `C=CC(=O)N1CCN(C(=O)N2CCC(n3cc(-c4cc(OC)c5c(C#N)cnn5c4)cn3)CC2)C[C@@H]1CC#N` [Example 135, (S)-6-(1-(1-(4-acryloyl-3-(cyanomethyl)piperazine-1-carbonyl)piperidin-4-yl)-1H-pyrazol-4-yl)-4-methoxypyrazolo[1,5-a]pyridine-3-carbonitrile] were 13 nM and 83 nM.
For `COc1cc(-c2cnn(C3CCN(C(=O)C4(F)CN(C(=O)/C=C/CN(C)C)C4)CC3)c2C)cn2ncc(C#N)c12` [Example 153, (E)-6-(1-(1-(1-(4-(dimethylamino)but-2-enoyl)-3-fluoroazetidine-3-carbonyl)piperidin-4-yl)-5-methyl-1H-pyrazol-4-yl)-4-methoxypyrazolo [1,5-a]pyridine-3-carbonitrile], in that order: 11 nM and 188 nM.
For `COC/C=C/C(=O)N1CC(F)(C(=O)N2CCC(n3ncc(-c4cc(OC)c5c(C#N)cnn5c4)c3C)CC2)C1` [Example 154, (E)-6-(1-(1-(3-fluoro-1-(4-methoxybut-2-enoyl)azetidine-3-carbonyl)piperidin-4-yl)-5-methyl-1H-pyrazol-4-yl)-4-methoxypyrazolo [1,5-a]pyridine-3-carbonitrile], in that order: 69 nM and 327 nM.
For `CC#CC(=O)N1CC(F)(C(=O)N2CCC(n3ncc(-c4cc(OC)c5c(C#N)cnn5c4)c3C)CC2)C1` [Example 156, 6-(1-(1-(1-(but-2-ynoyl)-3-fluoroazetidine-3-carbonyl)piperidin-4-yl)-5-methyl-1H-pyrazol-4-yl)-4-methoxypyrazolo [1,5-a]pyridine-3-carbonitrile], the IC50 at dephosphorylated FGFR2 came to 26 nM; in assay [1], 244 nM.
For the compound `COc1cc(-c2cnn(C3CCN(C(=O)C4(OC)CN(C(=O)/C=C/CN(C)C)C4)CC3)c2C)cn2ncc(C#N)c12` [Example 158, (E)-6-(1-(1-(1-(4-(dimethylamino)but-2-enoyl)-3-methoxyazetidine-3-carbonyl)piperidin-4-yl)-5-methyl-1H-pyrazol-4-yl)-4-methoxypyrazolo [1,5-a]pyridine-3-carbonitrile], the IC50 at dephosphorylated FGFR2 is 8 nM; in assay [1] it was 1550 nM.
As for `COc1cc(-c2cnn(C3CCN(CC4(OC)CN(C(=O)/C=C/CN(C)C)C4)CC3)c2C)cn2ncc(C#N)c12` [Example 159, (E)-6-(1-(1-((1-(4-(dimethylamino)but-2-enoyl)-3-methoxyazetidin-3-yl)methyl)piperidin-4-yl)-5-methyl-1H-pyrazol-4-yl)-4-methoxypyrazolo [1,5-a]pyridine-3-carbonitrile], the results for the IC50 (on dephosphorylated FGFR2; in assay [1]) were 24 nM and 451 nM, respectively.
With `COc1cc(-c2c(C)nn(C3CCN(C(=O)C4(F)CN(C(=O)/C=C/CN(C)C)C4)CC3)c2C)cn2ncc(C#N)c12` [Example 161, (E)-6-(1-(1-(1-(4-(dimethylamino)but-2-enoyl)-3-fluoroazetidine-3-carbonyl)piperidin-4-yl)-3,5-dimethyl-1H-pyrazol-4-yl)-4-methoxypyrazolo [1,5-a]pyridine-3-carbonitrile], the half-inhibitory concentration (IC50) at dephosphorylated FGFR2 is 44 nM; in assay [1], 537 nM.
In assay [1], `C=CS(=O)(=O)N1CCC(C(=O)N2CCC(n3cc(-c4cc(OC)c5c(C#N)cnn5c4)cn3)CC2)CC1` [Example 186, 4-methoxy-6-(1-(1-(1-(vinylsulfonyl)piperi-dine-4-carbonyl)piperidin-4-yl)-1H-pyrazol-4-yl)pyrazolo[1,5-a]pyridine-3-carbonitrile] returned an IC50 of 42 nM. That is a double-digit nanomolar value.

Values taken from patent US12180207B2 (ARRAY BIOPHARMA INC., priority 2018, dated 2024).
